Data as given in patent US9637496B2, “Substituted 7-azabicycles and their use as orexin receptor modulators” (priority 2013, dated 2017).
pKi: −log10 of the molar value. Where two headings read alike, the source gives them in different places.

Columns and labels:
human orexin 1 receptor = human orexin 1 receptor (Homo sapiens (Human), UniProt O43613); experiment: Human orexin 1 receptor radioligand binding (competitive binding, CHO membranes); settings: read-out: hOX1 Ki
human orexin 2 receptor = human orexin 2 receptor (Homo sapiens (Human), UniProt O43614); experiment: Human orexin 2 receptor radioligand binding ([3H]-EMPA competition, HEK293 membranes); settings: human orexin 2 receptor; Table 2, averages from between 2-20 runs; read-out: hOX2 Ki
human orexin 2 receptor, sequence (O43614 whole entry): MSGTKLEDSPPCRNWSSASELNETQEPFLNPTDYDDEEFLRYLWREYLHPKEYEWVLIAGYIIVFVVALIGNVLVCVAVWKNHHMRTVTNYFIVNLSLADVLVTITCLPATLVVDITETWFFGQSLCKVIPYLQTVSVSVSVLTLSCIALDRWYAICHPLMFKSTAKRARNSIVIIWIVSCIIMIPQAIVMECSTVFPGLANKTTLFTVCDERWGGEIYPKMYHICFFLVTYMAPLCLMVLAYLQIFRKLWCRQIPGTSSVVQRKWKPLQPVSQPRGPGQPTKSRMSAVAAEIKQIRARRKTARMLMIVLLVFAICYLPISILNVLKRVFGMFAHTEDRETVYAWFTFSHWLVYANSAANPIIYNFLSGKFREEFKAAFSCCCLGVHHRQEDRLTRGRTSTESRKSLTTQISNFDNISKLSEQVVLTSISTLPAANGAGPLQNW

rat orexin 1 receptor = rat orexin 1 receptor (Rattus norvegicus (Rat), UniProt P56718); experiment: Rat orexin 1 receptor radioligand binding (competitive binding, HEK293 membranes); settings: read-out: rOX1 Ki
rat orexin 1 receptor, sequence (P56718 whole entry): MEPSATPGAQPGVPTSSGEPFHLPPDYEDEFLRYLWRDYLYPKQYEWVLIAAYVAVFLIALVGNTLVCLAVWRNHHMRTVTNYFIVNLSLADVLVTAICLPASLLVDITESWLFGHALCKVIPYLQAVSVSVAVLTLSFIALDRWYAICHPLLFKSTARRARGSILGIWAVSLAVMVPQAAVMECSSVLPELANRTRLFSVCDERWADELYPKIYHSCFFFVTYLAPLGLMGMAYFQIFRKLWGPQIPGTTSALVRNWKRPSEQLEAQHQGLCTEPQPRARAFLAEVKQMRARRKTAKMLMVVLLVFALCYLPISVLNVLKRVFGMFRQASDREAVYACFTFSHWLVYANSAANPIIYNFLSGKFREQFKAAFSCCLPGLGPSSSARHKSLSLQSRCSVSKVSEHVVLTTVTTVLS

[1] = human orexin 1 receptor, Table 2, averages from between 2-20 runs
[2] = rat orexin 1 receptor, Table 2, averages from between 2-20 runs

human orexin 1 receptor, sequence (O43613 whole entry): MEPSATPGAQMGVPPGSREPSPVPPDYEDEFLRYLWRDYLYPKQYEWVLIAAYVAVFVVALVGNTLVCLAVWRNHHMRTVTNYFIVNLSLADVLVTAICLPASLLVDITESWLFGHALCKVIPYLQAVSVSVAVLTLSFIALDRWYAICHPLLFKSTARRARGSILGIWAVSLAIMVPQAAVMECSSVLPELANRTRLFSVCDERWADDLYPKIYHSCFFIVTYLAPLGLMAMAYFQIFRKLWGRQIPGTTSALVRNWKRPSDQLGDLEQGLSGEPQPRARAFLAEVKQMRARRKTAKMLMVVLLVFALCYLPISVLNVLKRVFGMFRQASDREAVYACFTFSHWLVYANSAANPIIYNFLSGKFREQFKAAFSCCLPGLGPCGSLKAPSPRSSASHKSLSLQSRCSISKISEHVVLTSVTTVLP

With O=C(c1cccc(F)c1-c1ncccn1)N1[C@@H]2CC[C@H]1[C@H](Nc1cnc(Br)cn1)C2 [Example 309, ((1S,2R,4R)-2-((5-bromopyrazin-2-yl)amino)-7-azabicyclo[2.2.1]heptan-7-yl)(3-fluoro-2-(pyrimidin-2-yl)phenyl)methanone] the pKi (human orexin 1 receptor) was 7.66, the pKi (human orexin 2 receptor) was 5.96 and the pKi (rat orexin 1 receptor) was 7.72.
Cc1cccc(C(=O)N2[C@@H]3CC[C@H]2[C@H](Nc2cnc(Br)cn2)C3)c1-c1ncccn1 [Example 310, ((1S,2R,4R)-2-((5-bromopyrazin-2-yl)amino)-7-azabicyclo[2.2.1]heptan-7-yl)(3-methyl-2-(pyrimidin-2-yl)phenyl)methanone] showed a pKi (human orexin 1 receptor; [1]) of 8.15, a pKi (human orexin 2 receptor) of 6.42 and a pKi (rat orexin 1 receptor; [2]) of 8.05.
O=C(c1cccc(F)c1-n1nccn1)N1[C@@H]2CC[C@H]1[C@H](Nc1cnc(Br)cn1)C2 [Example 311, ((1S,2R,4R)-2-((5-bromopyrazin-2-yl)amino)-7-azabicyclo[2.2.1]heptan-7-yl)(3-fluoro-2-(2H-1,2,3-triazol-2-yl)phenyl)methanone] gave a pKi (human orexin 1 receptor) of 7.68, a pKi (human orexin 2 receptor) of 6.00 and a pKi (rat orexin 1 receptor) of 7.77.
Cc1cccc(C(=O)N2[C@@H]3CC[C@H]2[C@H](Nc2cnc(Br)cn2)C3)c1-n1nccn1 [Example 312, ((1S,2R,4R)-2-((5-bromopyrazin-2-yl)amino)-7-azabicyclo[2.2.1]heptan-7-yl)(3-methyl-2-(2H-1,2,3-triazol-2-yl)phenyl)methanone] gave a pKi (human orexin 1 receptor) of 8.05, a pKi (human orexin 2 receptor) of 6.44 and a pKi (rat orexin 1 receptor) of 8.22.
Cc1cccc(C(=O)N2[C@@H]3CC[C@H]2[C@H](Nc2ncc(Br)cn2)C3)c1-c1ncco1 [Example 314, ((1S,2R,4R)-2-((5-bromopyrimidin-2-yl)amino)-7-azabicyclo[2.2.1]heptan-7-yl)(3-methyl-2-(oxazol-2-yl)phenyl)methanone] showed a pKi (human orexin 1 receptor) of 7.85, a pKi (human orexin 2 receptor) of 6.46 and a pKi (rat orexin 1 receptor) of 8.22.
In the case of O=C(c1cccc(F)c1-c1ncccn1)N1[C@@H]2CC[C@H]1[C@H](Nc1ncc(Br)cn1)C2 [Example 315, ((1S,2R,4R)-2-((5-bromopyrimidin-2-yl)amino)-7-azabicyclo[2.2.1]heptan-7-yl)(3-fluoro-2-(pyrimidin-2-yl)phenyl)methanone], the pKi (human orexin 1 receptor; [1]) was 7.28, the pKi (human orexin 2 receptor) was 5.73 and the pKi (rat orexin 1 receptor; [2]) was 7.52.
Work on Cc1cccc(C(=O)N2[C@@H]3CC[C@H]2[C@H](Nc2ncc(Br)cn2)C3)c1-c1ncccn1 [Example 316, ((1S,2R,4R)-2-((5-bromopyrimidin-2-yl)amino)-7-azabicyclo[2.2.1]heptan-7-yl)(3-methyl-2-(pyrimidin-2-yl)phenyl)methanone] yielded a pKi (human orexin 1 receptor) of 7.23, a pKi (human orexin 2 receptor) of 6.10 and a pKi (rat orexin 1 receptor; [2]) of 7.70.
With O=C(c1cccc(F)c1-n1nccn1)N1[C@@H]2CC[C@H]1[C@H](Nc1ncc(Br)cn1)C2 [Example 317, ((1S,2R,4R)-2-((5-bromopyrimidin-2-yl)amino)-7-azabicyclo[2.2.1]heptan-7-yl)(3-fluoro-2-(2H-1,2,3-triazol-2-yl)phenyl)methanone] the pKi (human orexin 1 receptor; [1]) was 7.15, the pKi (human orexin 2 receptor) was 5.80 and the pKi (rat orexin 1 receptor; [2]) was 7.51.
Cc1cccc(C(=O)N2[C@@H]3CC[C@H]2[C@H](Nc2ncc(Br)cn2)C3)c1-n1nccn1 [Example 318, ((1S,2R,4R)-2-((5-bromopyrimidin-2-yl)amino)-7-azabicyclo[2.2.1]heptan-7-yl)(3-methyl-2-(2H-1,2,3-triazol-2-yl)phenyl)methanone] gave a pKi (human orexin 1 receptor) of 7.89, a pKi (human orexin 2 receptor) of 6.11 and a pKi (rat orexin 1 receptor) of 8.05.
Work on O=C(c1cccc(F)c1-c1ccccn1)N1[C@@H]2CC[C@H]1[C@H](Nc1ccc(C(F)(F)F)cn1)C2 [Example 320, (3-fluoro-2-(pyridin-2-yl)phenyl)((1S,2R,4R)-2-((5-(trifluoromethyl)pyridin-2-yl)amino)-7-azabicyclo[2.2.1]heptan-7-yl)methanone] yielded a pKi (human orexin 1 receptor) of 7.85, a pKi (human orexin 2 receptor) of 6.59 and a pKi (rat orexin 1 receptor) of 7.43.
With O=C(c1ccc(F)cc1-n1nccn1)N1[C@@H]2CC[C@H]1[C@H](Nc1ccc(C(F)(F)F)cn1)C2 [Example 368, (4-fluoro-2-(2H-1,2,3-triazol-2-yl)phenyl)((1S,2R,4R)-2-((5-(trifluoromethyl)pyridin-2-yl)amino)-7-azabicyclo[2.2.1]heptan-7-yl)methanone] the pKi (human orexin 1 receptor; [1]) was 7.15, the pKi (human orexin 2 receptor) was 5.59 and the pKi (rat orexin 1 receptor; [2]) was 7.11.
Work on O=C(c1cc(F)ccc1-n1nccn1)N1[C@@H]2CC[C@H]1[C@H](Nc1ccc(C(F)(F)F)cn1)C2 [Example 369, (5-fluoro-2-(2H-1,2,3-triazol-2-yl)phenyl)((1S,2R,4R)-2-((5-(trifluoromethyl)pyridin-2-yl)amino)-7-azabicyclo[2.2.1]heptan-7-yl)methanone] yielded a pKi (human orexin 1 receptor; [1]) of 7.35, a pKi (human orexin 2 receptor) of 6.20 and a pKi (rat orexin 1 receptor; [2]) of 7.17.
In the case of O=C(c1c(F)cccc1-n1nccn1)N1[C@@H]2CC[C@H]1[C@H](Nc1ccc(C(F)(F)F)cn1)C2 [Example 370, (2-fluoro-6-(2H-1,2,3-triazol-2-yl)phenyl)((1S,2R,4R)-2-((5-(trifluoromethyl)pyridin-2-yl)amino)-7-azabicyclo[2.2.1]heptan-7-yl)methanone], the pKi (human orexin 1 receptor; [1]) was 6.85, the pKi (human orexin 2 receptor) was 6.29 and the pKi (rat orexin 1 receptor; [2]) was 6.98.
Molecule O=C(c1cc(F)ccc1-c1ncccn1)N1[C@@H]2CC[C@H]1[C@H](Nc1ccc(C(F)(F)F)cn1)C2 [Example 371, (5-fluoro-2-(pyrimidin-2-yl)phenyl)((1S,2R,4R)-2-((5-(trifluoromethyl)pyridin-2-yl)amino)-7-azabicyclo[2.2.1]heptan-7-yl)methanone] has a pKi (human orexin 1 receptor; [1]) of 7.57, a pKi (human orexin 2 receptor) of 6.21 and a pKi (rat orexin 1 receptor; [2]) of 7.38.
With O=C(c1c(F)cccc1-c1ncccn1)N1[C@@H]2CC[C@H]1[C@H](Nc1ccc(C(F)(F)F)cn1)C2 [Example 372, (2-fluoro-6-(pyrimidin-2-yl)phenyl)((1S,2R,4R)-2-((5-(trifluoromethyl)pyridin-2-yl)amino)-7-azabicyclo[2.2.1]heptan-7-yl)methanone] the pKi (human orexin 1 receptor) was 7.89, the pKi (human orexin 2 receptor) was 6.38 and the pKi (rat orexin 1 receptor) was 7.72.
With O=C(c1ccccc1-c1ncccn1)N1[C@@H]2CC[C@H]1[C@H](Nc1ccc(C(F)(F)F)cn1)C2 [Example 373, (2-(pyrimidin-2-yl)phenyl)((1S,2R,4R)-2-((5-(trifluoromethyl)pyridin-2-yl)amino)-7-azabicyclo[2.2.1]heptan-7-yl)methanone] the pKi (human orexin 1 receptor) was 7.44, the pKi (human orexin 2 receptor) was 6.17 and the pKi (rat orexin 1 receptor) was 7.47.
O=C(c1ccccc1-c1ncc(F)cn1)N1[C@@H]2CC[C@H]1[C@H](Nc1ccc(C(F)(F)F)cn1)C2 [Example 374, (2-(5-fluoropyrimidin-2-yl)phenyl)((1S,2R,4R)-2-((5-(trifluoromethyl)pyridin-2-yl)amino)-7-azabicyclo[2.2.1]heptan-7-yl)methanone] was tested, and the pKi (human orexin 1 receptor) was 7.51, the pKi (human orexin 2 receptor) was 6.04 and the pKi (rat orexin 1 receptor) was 7.39.
For O=C(c1cccc(F)c1-c1ncc(F)cn1)N1[C@@H]2CC[C@H]1[C@H](Nc1ccc(C(F)(F)F)cn1)C2 [Example 375, (3-fluoro-2-(5-fluoropyrimidin-2-yl)phenyl)((1S,2R,4R)-2-((5-(trifluoromethyl)pyridin-2-yl)amino)-7-azabicyclo[2.2.1]heptan-7-yl)methanone], the pKi (human orexin 1 receptor) was 7.05, the pKi (human orexin 2 receptor) was 5.66 and the pKi (rat orexin 1 receptor) was 7.31.
Molecule O=C(c1cccc(Cl)c1-c1ncccn1)N1[C@@H]2CC[C@H]1[C@H](Nc1ccc(C(F)(F)F)cn1)C2 [Example 376, (3-chloro-2-(pyrimidin-2-yl)phenyl)((1S,2R,4R)-2-((5-(trifluoromethyl)pyridin-2-yl)amino)-7-azabicyclo[2.2.1]heptan-7-yl)methanone] has a pKi (human orexin 1 receptor) of 8.40, a pKi (human orexin 2 receptor) of 6.96 and a pKi (rat orexin 1 receptor) of 8.00.
